Data as given in patent US20260250257A1, “ANTIBACTERIAL AND SYNERGISTIC ACTIVE COMPOUND AND USE THEREOF” (EAST CHINA UNIVERSITY OF SCIENCE AND TECHNOLOGY, priority 2023, published 2026).

Legend:
Type in all cases: cell-based
[1] = system: ATCC19606 strain (Acinetobacter baumannii); assay: Broth microdilution, antibacterial activity of the compound used alone
Excerpt: (§1) The broth microdilution method was used to test the antibacterial effects of the compounds of the present invention against various Gram-negative bacterial strains when used alone.

[2] = system: ATCC9027 strain (Pseudomonas aeruginosa); assay: as above
Excerpt: as §1

[3] = system: ATCC13883 strain (Klebsiella pneumoniae); assay: as above
Excerpt: as §1

[4] = system: ATCC25922 strain (Escherichia coli); assay: as above
Excerpt: as §1

[5] = system: ATCC19606 strain (Acinetobacter baumannii); assay: Checkerboard antibacterial synergistic activity test with polymyxin E (FIC); parameters: key: FIC≤0.5 synergy; 0.5–1 additive; 1–2 indifferent; ≥2 antagonism; details: combined with polymyxin E
Description: (§2) Polymyxin E was diluted in sterile MH broth medium to concentrations of 16, 8, 4, 2, 1, 0.5, 0.25, 0.125, 0.0625, 0.031, and 0.015 μg/ml, and the drug to be tested was diluted to concentrations of 256, 128, 64, 32, 16, 8, and 4 μg/ml. According to the checkerboard method, combinations of the drug to be tested and polymyxin at different concentrations in ascending order were placed into a 96-well plate, and corresponding blank control groups were set up. 50 μl of the drug solution was added to each well, then 100 μl of bacterial liquid was added, and incubated in a 37° C. incubator for 16 hours. […] Calculation and judgment criteria:
(§3) Fractional Inhibitory Concentration (FIC) is calculated as follows: […]
(§4) Judgment criteria: FIC≤0.5: synergistic effect; 0.5<FIC<1: additive effect; 1<FIC<2: indifferent effect; FIC≥2: antagonistic effect.
(§5) In the table: ATCC19606 strain is Acinetobacter baumannii, ATCC25922 strain is Escherichia coli, ATCC13883 strain is Klebsiella pneumoniae, ATCC9027 strain is Pseudomonas aeruginosa. All four strains were purchased from ATCC.

[6] = system: ATCC9027 strain (Pseudomonas aeruginosa); assay: as above; parameters: key: FIC≤0.5 synergy; 0.5–1 additive; 1–2 indifferent; ≥2 antagonism; details: combined with polymyxin E
Description: as §2, §3, §4, §5

[7] = system: ATCC13883 strain (Klebsiella pneumoniae); assay: as above; parameters: key: FIC≤0.5 synergy; 0.5–1 additive; 1–2 indifferent; ≥2 antagonism; details: combined with polymyxin E
Description: as §2, §3, §4, §5

[8] = system: ATCC25922 strain (Escherichia coli); assay: as above; parameters: key: FIC≤0.5 synergy; 0.5–1 additive; 1–2 indifferent; ≥2 antagonism; details: combined with polymyxin E
Description: as §2, §3, §4, §5

SMILES	Antibacterial activity of the compound of Formula I, ATCC19606 [1] [µg/mL]	Antibacterial activity of the compound of Formula I, ATCC9027 [2] [µg/mL]	Antibacterial activity of the compound of Formula I, ATCC13883 [3] [µg/mL]	Antibacterial activity of the compound of Formula I, ATCC25922 [4] [µg/mL]	Synergistic activity (FIC value) ATCC19606 [5]	Synergistic activity (FIC value) ATCC9027 [6]	Synergistic activity (FIC value) ATCC13883 [7]	Synergistic activity (FIC value) ATCC25922 [8]
NC(N)=Nc1nc(-c2ccccc2-c2ccccc2)co1 [Compound I-73]	256	256	256	256	0.25	0.52	1.25	1.25
CNc1cc(C)cc(-c2csc(N=C(N)N)n2)c1 [Compound I-23]	256	256	256	256	0.52	1.25	0.52	0.63
NC(N)=Nc1nc(-c2ccc(OCc3ccccc3)cc2)cs1 [Compound I-9]	256	256	256	256	0.13	0.31	0.16	0.26
NC(N)=Nc1nc(-c2ccccc2Cl)c[nH]1 [Compound I-36]	256	64	128	128	0.25	0.5	0.31	0.56
NC(N)=Nc1nc(-c2cccc3ccccc23)cs1 [Compound I-55]	256	256	256	256	0.13	0.53	0.31	0.38
NC(N)=Nc1nc(-c2cccc3cccnc23)co1 [Compound I-67]	256	256	256	256	0.5	1.25	1.25	0.63
NC(N)=Nc1nc(-c2cccc3c(Cl)cccc23)c[nH]1 [Compound I-65]	256	256	256	256	0.5	1.25	1.25	1.25
CSc1cc2c(Cl)cccn2c1-c1nc(N=C2NCCCN2)sc1Cl [Compound I-196]	256	256	256	256	0.13	1.25	0.19	0.52
CC(C)=CCOc1ccc(-c2csc(N=C(N)N)n2)cc1 [Compound I-48]	256	256	256	256	0.16	0.75	0.51	0.51
Nc1cc(Oc2ccccc2)cc(-c2c[nH]c(N=C3NCCCN3)n2)c1 [Compound I-135]	256	256	256	256	0.26	0.53	0.75	0.51
Cc1sc(N=C(N)N)nc1-c1ccccc1Oc1ccccn1 [Compound I-101]	256	256	256	256	0.25	0.52	1.25	1.25
Fc1cc(Oc2ccc(Cl)cc2Cl)cc(-c2csc(N=C3NCCCN3)n2)c1 [Compound I-161]	256	256	256	256	0.31	0.06	0.09	0.14
CC(C)=CCOc1ccccc1-c1csc(N=C(N)N)n1 [Compound I-46]	256	256	256	256	0.31	0.52	0.25	0.27
CC(=O)N(C)c1cccc(-c2csc(N=C(N)N)n2)c1 [Compound I-30]	256	256	256	256	0.13	1.25	0.19	0.52
CCc1oc(N=C2NCCCN2)nc1-c1cccc(C(C)C)c1 [Compound I-165]	256	256	256	256	0.13	0.53	0.31	0.38
CC(C)c1cc(-c2coc(N=C(N)N)n2)cc(C(C)C)c1O [Compound I-19]	256	256	256	256	0.12	0.31	0.31	0.38
CSc1cc2c(C)cccn2c1-c1c[se]c(N=C2NCCCN2)n1 [Compound I-191]	256	256	256	256	0.13	0.51	0.19	0.52
